Several values for one entry are separate records, joined by “and”; a condition that tells them apart may be missing. Equal values may be shown once.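 96-well plates; 48 h exposure; 5 concentrations. Endpoints by linear interpolation between flanking doses. Not reached: highest tested concentration assigned. The concentration for 50% growth inhibition is given as GI50. TGI: total growth inhibition.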
How the values were obtained:
Experiment in all cases: DTP human tumour cell line panel, 48 h
DU-145 prostate = test system: DU-145 prostate
HCC-2998 colon = test system: HCC-2998 colon
HT29 colon = test system: HT29 colon
IGROV1 ovarian = test system: IGROV1 ovarian
M14 melanoma = test system: M14 melanoma
MDA-MB-231 breast = test system: MDA-MB-231 breast
MDA-N = test system: MDA-N
OVCAR-3 ovarian = test system: OVCAR-3 ovarian
PC-3 prostate = test system: PC-3 prostate
SNB-19 CNS = test system: SNB-19 CNS
SW-620 colon = test system: SW-620 colon
T-47D breast = test system: T-47D breast
NCI-H226 lung = test system: NCI-H226 lung

SMILES	TGI (DU-145 prostate) [µM]	TGI (HCC-2998 colon) [µM]	TGI (HT29 colon) [µM]	TGI (IGROV1 ovarian) [µM]	TGI (M14 melanoma) [µM]	TGI (MDA-MB-231 breast) [µM]	TGI (MDA-N) [µM]	TGI (OVCAR-3 ovarian) [µM]	TGI (PC-3 prostate) [µM]	TGI (SNB-19 CNS)	TGI (SW-620 colon) [µM]	TGI (T-47D breast) [µM]	TGI (NCI-H226 lung) [µM]	GI50 (MDA-MB-231 breast)	GI50 (MDA-N)	GI50 (PC-3 prostate)	GI50 (SNB-19 CNS)
Cc1ccc(N2C(=O)C(=O)N(/N=C3\C(=O)Nc4ccccc43)C2=S)cc1	> 100	> 100	> 100	> 100	> 100	> 100	> 100	> 100	> 100	> 100 µM	> 100	> 100					
C=C(CC)C[C@@H]1C[C@]2(C(=O)OC)c3[nH]c4ccccc4c3CCN2C1=O	> 100	34.1	42	58	36.5	54.7	35.5	27.9	42.8	> 100 µM	35.9	> 100					
Cc1ccccc1NC(=O)CSc1nnc(Cc2ccccc2)o1		> 100	> 100	> 100	> 100			> 100					> 100				
CC(C)(C)N=c1n(C(C)(C)C)oc(=O)n1-c1ccccc1	> 50		> 50	> 50	> 50	> 50	> 50	> 50	> 50	> 50 µM	> 50		> 50				
COc1ccc(/C=C(\Cl)c2ccc(OC)cc2)cc1		> 100			> 100			> 100		> 100 µM	> 100		> 100				
CC[C@H](C)[C@H]1NC(=O)[C@@H](NC(=O)[C@@H](CC(C)C)N(C)C(=O)C2CCCN2C(=O)[C@H](C)O)[C@@H](C)OC(=O)[C@H](Cc2ccccc2)N(C)C(=O)[C@@H]2CCCN2C(=O)[C@H](CC(C)C)NC(=O)[C@@H](C)C(=O)[C@H](C(C)C)OC(=O)C[C@@H]1O (some centres undefined)		0.00678	0.0205		0.0257		0.109	0.0113	0.119	< 0.00625 µM	> 62.5		0.00705				
O=C(O)CO/N=C1/C(c2c(O)[nH]c3ccccc23)=Nc2ccccc21	> 100	> 100	> 100	> 100	> 100	> 100	> 100	69.9	> 100	> 100 µM	> 100	> 100					
OC1(c2ccc3ccccc3c2)c2c(c3ccccc3c3ccccc23)C2=NCCN21 (centres undefined)	> 65.3		8.63	24	4.29	> 60.6	4.28	36.9	> 69.3	> 58.2 µM	23	> 40.6	> 100				
Cn1c(=O)sc2cc(C(=S)N3CCN(c4ccccc4)CC3)ccc21	> 100		> 100	> 100	> 100	> 100	> 100	> 100	> 100	> 100 µM	> 100		> 100				
COC(=O)[C@@H]1[C@H](O)CC[C@H]2[C@@]1(C)CC[C@@H](C)[C@]2(COC(C)=O)CC(=O)c1ccoc1	> 50		> 50	> 50	> 50	> 50	> 50	> 50	> 50	> 50 µM	> 50	> 50	> 50				
COC1C(OC(N)=O)C(O)C(Oc2ccc3c(O)c(NC(=O)c4ccc(O)c(CC=C(C)C)c4)c(=O)oc3c2C)OC1(C)C (centres undefined)	> 100	> 100	> 100	> 100	> 100	> 100	> 100	> 100	> 100	> 100 µM	> 100	> 100					
CC(Nc1n[nH]c(=O)c2c1nnn2Cc1ccccc1)c1ccccc1 (centres undefined)	> 100	> 100	24.7		> 100	> 100	> 100	> 100	> 100	> 100 µM and 66.2 µM				> 100 µM and 49.8 µM	> 100 µM and 32.3 µM	> 100 µM and 20.8 µM	> 100 µM and 21.7 µM
Cc1cn2c(/C=C3/C(=O)Nc4ccccc43)c(C)nc2s1	> 100	19.5	15.5	> 100	> 100	43.4	0.492		6.99	> 100 µM	77.3	38.5					
CSc1nc(-c2ccc(Cl)cc2)c(C#N)c(=O)[nH]1	> 100	> 100	> 100	> 100	> 100	> 100		> 100	> 100	> 100 µM	> 100	> 100	> 100				
Cc1ccc(Nc2cn(COCc3ccccc3)c(=O)[nH]c2=O)cc1	> 100	> 100	> 100	> 100	> 100		> 100	> 100	> 100	> 100 µM	> 100		> 100				
Cc1[nH]c2ccccc2c1C1=CC(=O)N(c2ccccc2)C1=O	52.5	7.38	21.8	> 100	32.2	> 100		> 100	> 100	> 100 µM	37.8		88.4				
CC(C)(CN)SCc1ccccc1	> 100		> 100	> 100	> 100	> 100	> 100	> 100	> 100	> 100 µM	> 100	> 100	> 100				
CCOC(=O)c1c(NC(=O)c2ccc(Br)cc2)sc2c1CCCC2	> 100		> 100	> 100	> 100	> 100	> 100	> 100	> 100	> 100 µM	> 100	> 100	> 100				
CN(C)Cc1[nH]c2ccccc2c1C(=O)c1ccccc1		> 100	> 100	> 100	> 100			> 100		> 100 µM	> 100		> 100				
N#Cc1c(N2CCOCC2)ncn(-c2ccc(Cl)cc2)c1=O	> 100	> 100		> 100	> 100		> 100	> 100	> 100	> 100 µM	> 100	> 100	> 100				
CN(C)C(=O)Oc1ccc(C(=S)Nc2ccccc2)cc1Br	> 100	> 100	65.1	48.9	39.8		57.4	> 100	> 100	> 100 µM	> 100	80.9					

SMILES	TGI (DU-145 prostate) [µM]	TGI (HCC-2998 colon) [µM]	TGI (HT29 colon) [µM]	TGI (IGROV1 ovarian) [µM]	TGI (M14 melanoma) [µM]	TGI (MDA-MB-231 breast) [µM]	TGI (MDA-N) [µM]	TGI (OVCAR-3 ovarian) [µM]	TGI (PC-3 prostate) [µM]	TGI (SNB-19 CNS)	TGI (SW-620 colon) [µM]	TGI (T-47D breast) [µM]	TGI (NCI-H226 lung) [µM]	GI50 (MDA-MB-231 breast)	GI50 (MDA-N)	GI50 (PC-3 prostate)	GI50 (SNB-19 CNS)
CC(=O)Nc1nnc(S(=O)(=O)NC(=S)Nc2ccc(Cl)cc2)s1	> 100	> 100	> 100	> 100	> 100	> 100	> 100	> 100	> 100	> 100 µM	> 100	> 100					
CC1(C)N=C(Oc2ccccc2)n2nccc2N1		> 100	> 100	> 100	> 100			> 100		> 100 µM	> 100		> 100				
O=C1Cc2ccccc2CCc2ccsc21		> 100	> 100	> 100	> 100			> 100		> 100 µM	> 100		> 100				
COc1cc2c(cc1OCCCCN1CCN(CCCCOc3cc4c(cc3OC)C(=O)N3CCC[C@H]3C=N4)CC1)N=C[C@@H]1CCCN1C2=O	> 100		0.656		0.0936	0.182		0.0636	3.12		> 40	3.53	0.0891				
Nc1cc(N)c(N=Nc2cccc3c(S(=O)(=O)O)cccc23)cc1N=Nc1cc([N+](=O)[O-])ccc1O	> 100	79.9	> 100	> 100	> 100	> 100	> 100	> 100	> 100	> 100 µM	> 100	> 100					
COc1nc(OC)nc(Sc2ccc(Sc3ccc(Sc4nc(OC)nc(OC)n4)cc3)cc2)n1		> 100	> 100	> 100	> 100			> 100		> 100 µM	> 100		> 100				
CC#Cc1c(C#CC)c(OC)c2c(c1OC)C(=O)c1ccccc1C2=O		> 100	> 100	> 100	> 100			> 100		71.4 µM	> 100						
Cc1ccc(F)c2c(=O)cc(-c3ccccc3)[nH]c12			> 100	> 100	> 100						> 100		> 100				
O=C1c2ccccc2C(=O)c2c(O)c(NCCNCCO)cc(O)c21		13.7	11.5	6.62	16			15.1		11.8 µM	12		14.9				
O=C(Nc1ccc(S(=O)(=O)Nc2ncccn2)cc1)c1c2ccccc2nc2ccccc12	> 100	> 100	> 100	> 100	> 100	> 100	> 100	> 100	> 100	> 100 µM	> 100		> 100				
Cc1cc(Cl)ccc1NC(=O)C(=O)Cc1occc(=O)c1O		> 100	> 100	> 100	> 100					> 100 µM	> 100		> 100				
Cc1cc(C(O)CNC(C)CCn2cnc3c2c(=O)n(C)c(=O)n3C)ccc1O (centres undefined)	> 100		> 100	> 100	> 100	> 100		> 100	> 100	> 100 µM	> 100	> 100	> 100				
CCCOP(=S)(N1CC1)N1CC1		> 100	> 100	> 100	> 100			> 100		> 100 µM	> 100		> 100				
C=CCC1C2CCC(O[Si](C(C)C)(C(C)C)C(C)C)(C(C(=O)OC)C2)C1O (centres undefined)	> 100		> 100	> 100	> 100	> 100	> 100	> 100	> 100	> 100 µM	> 100	> 100	> 100				
O=C1C(NS(=O)(=O)c2ccccc2)=C(N(Cc2ccccc2)Cc2ccccc2)C(=O)c2ccccc21	> 100		> 100	> 100	> 100	> 100	> 100	> 100	> 100	> 100 µM	> 100	> 100	> 100				
Cc1nc2nn(C)cc2c(=O)n1/N=C/c1ccccc1		> 100	> 100	> 100				> 100		> 100 µM	> 100		> 100				
c1cc(C[S+]2CCCC2)oc1C[S+]1CCCC1	> 100	> 100	> 100	> 100	> 100	> 100	> 100	> 100	> 100	> 100 µM	> 100	> 100					
COc1ccc(C2C(Cl)C(=O)N2NC(=O)c2ccccc2O)cc1OC (centres undefined)			> 100	> 100	> 100			> 100		> 100 µM			> 100				
Cc1ccc(-n2cc(-c3ccc(Cl)cc3)c(C#N)c2N)cc1	71.4	28.4	27	29.9	28.7	28.7	32.5	29.1	25.4	38.1 µM	26		31.7				
CC(C)c1cccc(C(C)C)c1NC(=O)C(=O)C1SC(=S)NC1=O (centres undefined)			> 100	> 100	> 100					> 100 µM	> 100		> 100				

— PubChem BioAssay (NCI)
